Laboratory results taken from US9006445B2, “Polymorphic form of pridopidine hydrochloride” (Ivax International GmbH, priority 2011, dated 2015).
Where two headings read alike, the source gives them in different places.

Assays:
[1] = 25° C.
Procedure: Dynamic vapour sorption (DVS) measurements were conducted using a Q5000 SA from TA instruments.
Experiments were conducted in two sorption/desorption cycles between 0% RH and 95% RH. Prior to the first sorption cycle the sample was equilibrated at 20% RH and the initial weight recorded. Samples were analyzed in an aluminium pan. Humidity was brought down to 0% RH and the sample dried until the weight had stabilized within a given limit. The temperature was held constant at 25° C. Maximum step time was 720 min. Gas flow was 200 cm3/min.

[2] = for Particle size D10 / Particle size D50 / Particle size D90: image analysis; for Aspect ratio AR10 / Aspect ratio AR50 / Aspect ratio AR90: longest divided by shortest particle dimension
Procedure: Microscopic analysis was carried out using a Zeiss Axiolab microscope (Carl Zeiss, Göttingen, Germany). Photomicrographs were captured using a DeltaPix digital camera and Deltapix software version 1.6 (Maaloev, Denmark). […] The particle size was determinated using Motic Image Plus 2.0 software (Motic Group Inc, China), calibrated to pictures of reference scales taken with the used objectives.

[3] = triplicate; for bulk density: 50.0 g sample; for tapped density: 2500 taps at 100 taps/min
Procedure: Density determinations were performed as described in Ph. Eur. 2.9.34. The method was modified as the sample amount placed in the 250 ml volumetric glass cylinder was 50.0 g and 2500 taps were run at 100 taps/min. The measurements were done in triplicate.

[4] = conclusion from calculated Tt and seeding experiment
Procedure: (§1) In order to confirm this finding experimentally, a seeding experiment was carried out, where mixtures of the two forms were slurried in an organic solvent for 4 hours at various temperatures.

[5] = mixtures of the two forms slurried in organic solvent for 4 hours, XRPD
Procedure: as §1

| hygroscopicity (DVS) ([1]; below 80% RH) | hygroscopicity (DVS) ([1]; in excess of 80% RH) | Particle size D10 [2] [μm] | Particle size D50 [2] [μm] | Particle size D90 [2] [μm] | Aspect ratio AR10 [2] | Aspect ratio AR50 [2] | Aspect ratio AR90 [2] | bulk density [3] [g/mL] | tapped density [3] [g/mL] | temperature at which the form is the thermodynamically most stable form [4] | temperature at which the polymorphic outcome of slurrying was this form [5] | SMILES |
| --- | --- | --- | --- | --- | --- | --- | --- | --- | --- | --- | --- | --- |
| non-hygroscopic | deliquescent | 9 | 21 | 42 | 1.6 | 3.1 | 5.8 | 0.212 | 0.264 | above 127 °C | below 125 °C | CCCN1CCC(c2cccc(S(C)(=O)=O)c2)CC1 [Form I, 4-(3-methanesulfonyl-phenyl)-1-propyl-piperidine] |
| non-hygroscopic | deliquescent | 49 | 170 | 363 | 1.1 | 1.6 | 2.9 | 0.382 | 0.486 | above 127 °C | above 130 °C | CCCN1CCC(c2cccc(S(C)(=O)=O)c2)CC1.Cl [Form II, 4-(3-methanesulfonyl-phenyl)-1-propyl-piperidine hydrochloride salt] |
